The values that follow come from ChEMBL document CHEMBL3994655, “Methylsulfonyl benzothiazoles (MSBT) derivatives: Search for new potential antimicrobial and anticancer agents” (2017).

The test system of experiment [1] is Pichia kudriavzevii. As to the kind of experiment: Antifungal activity against Candida krusei G03 after 24 to 48 hrs by macro-broth dilution method. The class given is functional.
For experiment [2], the system named is Nakaseomyces glabratus. As to the kind of experiment: Antifungal activity against Candida glabrata H04 after 24 to 48 hrs by macro-broth dilution method. In kind it is functional.
For experiment [3], the system named is Candida albicans. Briefly: Antifungal activity against Candida albicans ATCC 10231 after 24 to 48 hrs by macro-broth dilution method. In kind it is functional.
The test system of experiment [4] is Candida albicans. As to the kind of experiment: Antifungal activity against Candida albicans A01 after 24 to 48 hrs by macro-broth dilution method. The class given is functional.
Experiment [5] relates to Pichia kudriavzevii. Briefly: Antifungal activity against Candida krusei G06 after 24 to 48 hrs by macro-broth dilution method. In kind it is functional.
Experiment [6] deals with Nakaseomyces glabratus. Briefly: Antifungal activity against Candida glabrata H05 after 24 to 48 hrs by macro-broth dilution method. In kind it is functional.
Experiment [7] deals with Escherichia coli. Briefly: Antibacterial activity against Escherichia coli ATCC 35421 assessed as zone of inhibition at 1 mg/ml by agar well diffusion method. To be noted: read-out: DIZ. The class given is functional.
For experiment [8], the system named is Staphylococcus aureus. As to the kind of experiment: Antibacterial activity against Staphylococcus aureus 209P assessed as zone of inhibition at 1 mg/ml by agar well diffusion method. The class given is functional. To be noted: read-out: DIZ.
Experiment [9] concerns Staphylococcus aureus. As to the kind of experiment: Antibacterial activity against Staphylococcus aureus 209P assessed as zone of inhibition at 5 mg/ml by agar well diffusion method. To be noted: read-out: DIZ. In kind it is functional.
The test system of experiment [10] is HeLa. As to the kind of experiment: Growth inhibition of human HeLa cells after 48 hrs by SRB assay. The class given is functional.
Experiment [11] deals with Escherichia coli. As to the kind of experiment: Antibacterial activity against Escherichia coli ATCC 35421 after 24 to 48 hrs by macro-broth dilution method. In kind it is functional.
Experiment [12] has as its system Escherichia coli. Briefly: Antibacterial activity against Escherichia coli ATCC 20732 after 24 to 48 hrs by macro-broth dilution method. In kind it is functional.
In experiment [13] the test system is HeLa. Briefly: Cytotoxicity against human HeLa cells assessed as reduction in cell viability after 48 hrs by SRB assay. The class given is functional, cell-based.
Experiment [14] deals with Pseudomonas aeruginosa. As to the kind of experiment: Antibacterial activity against Pseudomonas aeruginosa M5 after 24 to 48 hrs by macro-broth dilution method. In kind it is functional.
Experiment [15] deals with Staphylococcus aureus. Briefly: Antibacterial activity against methicillin-resistant Staphylococcus aureus 3710 after 24 to 48 hrs by macro-broth dilution method. The class given is functional.
Experiment [16] concerns HeLa. As to the kind of experiment: Cytotoxicity against human HeLa cells assessed as cell growth at 10^-4 M after 48 hrs by SRB assay relative to control. To be noted: read-out: Activity. The class given is functional.
The test system of experiment [17] is Candida albicans. Briefly: Antifungal activity against Candida albicans A01 assessed as zone of inhibition at 1 mg/ml by agar well diffusion method. The class given is functional. To be noted: read-out: DIZ.
For experiment [18], the system named is HeLa. Briefly: Cytotoxicity against human HeLa cells assessed as cell growth at 10^-7 M after 48 hrs by SRB assay relative to control. In kind it is functional. The note with it: read-out: Activity.
Experiment [19] relates to Staphylococcus aureus. As to the kind of experiment: Antibacterial activity against methicillin-resistant Staphylococcus aureus ATCC 33591 after 24 to 48 hrs by macro-broth dilution method. The class given is functional.
The subject of experiment [20] is Candida albicans. As to the kind of experiment: Antifungal activity against Candida albicans A01 assessed as zone of inhibition at 5 mg/ml by agar well diffusion method. The class given is functional. The note with it: read-out: DIZ.
Experiment [21] has as its system Staphylococcus epidermidis. Briefly: Antibacterial activity against Staphylococcus epidermidis 209E after 24 to 48 hrs by macro-broth dilution method. In kind it is functional.
In experiment [22] the test system is HeLa. As to the kind of experiment: Cytotoxicity against human HeLa cells assessed as cell growth at 10^-6 M after 48 hrs by SRB assay relative to control. The class given is functional. The note with it: read-out: Activity.
Experiment [23] has as its system Staphylococcus aureus. As to the kind of experiment: Antibacterial activity against Staphylococcus aureus 209P after 24 to 48 hrs by macro-broth dilution method. The class given is functional.
Experiment [24] deals with HeLa. Briefly: Cytotoxicity against human HeLa cells assessed as cell growth at 10^-5 M after 48 hrs by SRB assay relative to control. In kind it is functional. To be noted: read-out: Activity.
Experiment [25] has as its system Escherichia coli. Briefly: Antibacterial activity against Escherichia coli ATCC 35421 assessed as zone of inhibition at 5 mg/ml by agar well diffusion method. In kind it is functional. To be noted: read-out: DIZ.

Values after ≈ are worked out from the molar mass of the structure shown.

With `OC(Cn1cncn1)(Cn1cncn1)c1ccc(F)cc1F` [FLUCONAZOLE], the MIC was 2 mg/L (≈ 6.53 µM) in experiment [1]; 2 mg/L (≈ 6.53 µM) in experiment [2]; 4 mg/L (≈ 13.1 µM) in experiment [3]; 4 mg/L (≈ 13.1 µM) in experiment [4]; 2 mg/L (≈ 6.53 µM) in experiment [5]; 2 mg/L (≈ 6.53 µM) in experiment [6].
With `CCOc1ccc2sc(S(C)(=O)=O)nc2c1S(=O)(=O)Nc1ccc([N+](=O)[O-])cc1`, the zone of inhibition at 1000 µg/mL in experiment [7] was 9 mm; in experiment [8], 14 mm; in experiment [17], not above 7 mm. For the same compound, the zone of inhibition at 5000 µg/mL is 16 mm in [9], not above 7 mm in experiment [20] and 10 mm in experiment [25]. The compound also returned a 50% growth inhibitory concentration (GI50) in experiment [10] of 0.22 µM. This compound displayed an LC50 in experiment [10] of 81.5 µM. Further, net growth in experiment [10] stopped (TGI) at 40.8 µM. The “growth inhibition (GI)” value in experiment [10] is “Dose-dependent effect”. Moreover, the MIC came out at 20 mg/L (≈ 43.7 µM) in experiment [11]; 20 mg/L (≈ 43.7 µM) in [12]; 50 mg/L (≈ 109 µM) in [14]; 10 mg/L (≈ 21.9 µM) in experiment [15]; 10 mg/L (≈ 21.9 µM) in [19]; 10 mg/L (≈ 21.9 µM) in [21]. The MIC in experiment [23] amounted to 10 mg/L (≈ 21.9 µM). Further, the Activity result in [13] is “Dose-dependent effect”. Moreover, in experiment [16], the growth at 100 µM is -67.8%. For the same compound, in experiment [18], the growth at 0.1 µM was determined as 98.3%. In addition, the growth at 1 µM in [22] is 46.2%. Further, the growth at 10 µM in experiment [24] is -12.3%.
Turning to `CC(=O)NC[C@H]1CN(c2ccc(N3CCOCC3)c(F)c2)C(=O)O1` [LINEZOLID], the MIC in experiment [21] and in experiment [23] was 1 mg/L (≈ 2.96 µM) in each case.
`CCOc1ccc2sc(S(C)(=O)=O)nc2c1S(=O)(=O)NC(CC)CC`: the zone of inhibition at 1000 µg/mL in experiment [7] was 9 mm; in experiment [8], 13 mm; in experiment [17], not above 7 mm. Moreover, the zone of inhibition at 5000 µg/mL in experiment [9] is 21 mm; in experiment [20], not above 7 mm; in experiment [25] it was 10 mm. In addition, the GI50 in experiment [10] came to 19.5 µM. The compound further returned an LC50 in experiment [10] of 87.4 µM. The TGI in experiment [10] was 53.5 µM. Further, the “growth inhibition (GI)” value in [10] is “Dose-dependent effect”. The MIC in experiment [11] was 50 mg/L (≈ 123 µM); in [12], 50 mg/L (≈ 123 µM); in experiment [14], 100 mg/L (≈ 246 µM); in experiment [15], 100 mg/L (≈ 246 µM); in experiment [19], 100 mg/L (≈ 246 µM); in experiment [21] it was 50 mg/L (≈ 123 µM). The MIC in experiment [23] worked out at 50 mg/L (≈ 123 µM). For the same compound, in experiment [13], the Activity result was “Dose-dependent effect”. Further, in experiment [16], the growth at 100 µM was -65.8%. The growth at 0.1 µM in experiment [18] stood at 91.8%. The growth at 1 µM in experiment [22] was found to be 89.4%. In addition, the growth at 10 µM in [24] was determined as 35.6%.
As to `CCOc1ccc2sc(S(C)(=O)=O)nc2c1N`, the zone of inhibition at 1000 µg/mL in experiment [7] is not above 7 mm; in [8] it was 17 mm; in experiment [17], not above 7 mm. The minimum inhibitory concentration (MIC) in [1] came out at 10 mg/L (≈ 36.7 µM); in experiment [2], 10 mg/L (≈ 36.7 µM); in experiment [3], 4 mg/L (≈ 14.7 µM); in experiment [4], 8 mg/L (≈ 29.4 µM); in [5], 10 mg/L (≈ 36.7 µM); in experiment [6], 10 mg/L (≈ 36.7 µM). The zone of inhibition at 5000 µg/mL was not above 7 mm in [9], 19 mm in [20] and not above 7 mm in experiment [25]. Further, the GI50 in experiment [10] is 34 µM. In [10], this compound had an LC50 of more than 100 µM. For the same compound, the TGI in experiment [10] was found to be 74.3 µM. Further, in [10], the “growth inhibition (GI)” value was “Dose-dependent effect”. In [13], the Activity result is “Dose-dependent effect”. Further, the growth at 100 µM in experiment [16] is -31.9%. In addition, in experiment [18], the growth at 0.1 µM came out at 99.5%. The growth at 1 µM in experiment [22] turned out to be 93%. The growth at 10 µM in experiment [24] is 65.6%.
`CS(=O)(=O)c1nc2cc(OCc3ccc(Cl)cc3)ccc2s1`: the results for the zone of inhibition at 1000 µg/mL in experiment [7], in [8] and in [17] were 9 mm, 13 mm and 9 mm, respectively. In addition, the MIC in experiment [1] was found to be 20 mg/L (≈ 56.5 µM); in experiment [11], 20 mg/L (≈ 56.5 µM); in experiment [2] it was 50 mg/L (≈ 141 µM); in experiment [12], 20 mg/L (≈ 56.5 µM); in [14] it was 50 mg/L (≈ 141 µM); in experiment [15] it was 100 mg/L (≈ 283 µM). Also, the MIC stood at 20 mg/L (≈ 56.5 µM) in experiment [3]; 100 mg/L (≈ 283 µM) in [19]; 100 mg/L (≈ 283 µM) in [21]; 20 mg/L (≈ 56.5 µM) in experiment [4]; 20 mg/L (≈ 56.5 µM) in experiment [5]; 50 mg/L (≈ 141 µM) in experiment [6]. Inhibition of growth in [23] (MIC) required 100 mg/L (≈ 283 µM). In addition, the results for the zone of inhibition at 5000 µg/mL in [9], in [20] and in [25] were 22 mm, 16 mm and 10 mm, respectively. The compound further gave a 50% growth inhibitory concentration (GI50) in [10] of 33 µM. This compound yielded an LC50 in experiment [10] of more than 100 µM. The compound further came in with a TGI in [10] of 73.3 µM. In addition, the “growth inhibition (GI)” value in experiment [10] was “Dose-dependent effect”. In experiment [13], the Activity result was “Dose-dependent effect”. Further, the growth at 100 µM in experiment [16] was -50.5%. In experiment [18], the growth at 0.1 µM was determined as 100%. Besides, in experiment [22], the growth at 1 µM amounted to 89.9%. In addition, in [24], the growth at 10 µM stood at 60.8%.
On to GENTAMICIN, for which the MIC was 1 mg/L in experiment [11], 1 mg/L in experiment [12] and 2 mg/L in experiment [14].
As to `CCOc1ccc2sc(S(C)(=O)=O)nc2c1S(=O)(=O)NC(C)(C)C`, the values for the zone of inhibition at 1000 µg/mL in [7], in [8] and in [17] were 9 mm, not above 7 mm and not above 7 mm, respectively. Further, the zone of inhibition at 5000 µg/mL in experiment [9] was 13 mm; in experiment [20] it was not above 7 mm; in [25], 10 mm. Halving of growth in experiment [10] (GI50) required 0.6 µM. The compound also came in with an LC50 in [10] of 76.6 µM. The TGI in [10] came to 38.6 µM. Moreover, the “growth inhibition (GI)” value in [10] was “Dose-dependent effect”. The MIC in [11] worked out at 20 mg/L (≈ 51 µM); in experiment [12], 20 mg/L (≈ 51 µM); in experiment [14] it was 50 mg/L (≈ 127 µM); in [15] it was 10 mg/L (≈ 25.5 µM); in experiment [19], 10 mg/L (≈ 25.5 µM); in experiment [21], 10 mg/L (≈ 25.5 µM). In [23], this compound returned an MIC of 8 mg/L (≈ 20.4 µM). In experiment [13], the Activity result was “Dose-dependent effect”. Also, the growth at 100 µM in experiment [16] was -76.3%. In experiment [18], the growth at 0.1 µM stood at 97.9%. The growth at 1 µM in experiment [22] is 42.1%. Moreover, the growth at 10 µM in experiment [24] was -6.7%.
